Measured values from patent publication US11135207B2, “Inhibitors of dihydroceramide desaturase for treating disease” (Centaurus Therapeutics, priority 2016, dated 2021).
Values joined by “and” are separate entries in the source; they are usually repeats but may differ in a detail not shown here. Equal entries are not always repeated. Where two headings read alike, the source gives them in different places.

Biological target: Des1 (Homo sapiens (Human), UniProt O15121)
Assay: Jurkat T cell measurement of conversion of dihydroceramide to ceramide
Assay type: cell-based
Conditions: for inhibition at 1 µM: read-out: Des1 % Inhib (1 μM); for IC50: read-out: Des1 IC50; for inhibition at 0.5 µM: read-out: Des1 % Inhib (0.5 μM); for inhibition at 10 µM: read-out: Des1 % Inhib (10 μM)
Protocol: Jurkat T Cell Measurement of Conversion of Dihydroceramide to Ceramide
Jurkat clone E6-1 cells were grown and then seeded at 10^6 cells/mL in a 96-well plate (400 μL in each well. The cells were administered 100 μL of cell culture media containing 50-μM NBD-C6-dihydroceramide (Des1 substrate), affording a final concentration of substrate of 10 μM. The cells were incubated with substrate at 4° C. for 30 minutes. Following the incubation at 4° C., the cell suspension was centrifuged at 1200 rpm for 3 minutes, and the cell pellet is resuspended in 400 μL of fresh media containing various concentrations of either fenretinide (known Des1 inhibitor control compound) or test article. The final concentrations of control compound and test compounds were tested in a range from 0-10 μM. The cells and compounds were incubated at 37° C. for 3 hours. Following the 3-hour incubation, the plate was centrifuged at 2500 g for 3 minutes at 4° C., followed by collection and transfer of 200 μL of the supernatant to a new 96-well plate with 300 μL of methanol an containing appropriate internal standards for liquid chromatography/tandem mass spectroscopy (LC/MS/MS) analysis (internal standard: 500 nM labetalol and 100 nM alprazolam). The samples were vortexed for 2 minutes followed by centrifugation at 3,220 g for 20 minutes. Following centrifugation, 200 μL of the supernatant was transferred to a new 96-well plate for LC-MS/MS analysis to determine the amount of NBD-C6-ceramide (Des1 product) produced. The assay was typically performed in duplicate. A reduction of at least 30% compared to vehicle control (0 μM test article) is indicative of an active compound, and a reduction of 75% compared to vehicle control is preferred.

[1] = 1 μM compound, Jurkat clone E6-1 cells
[2] = Jurkat clone E6-1 cells, NBD-C6-dihydroceramide substrate
[3] = 0.5 μM compound, Jurkat clone E6-1 cells
[4] = 10 μM compound, Jurkat clone E6-1 cells, NBD-C6-dihydroceramide substrate

Sequence of Des1 (O15121 whole entry): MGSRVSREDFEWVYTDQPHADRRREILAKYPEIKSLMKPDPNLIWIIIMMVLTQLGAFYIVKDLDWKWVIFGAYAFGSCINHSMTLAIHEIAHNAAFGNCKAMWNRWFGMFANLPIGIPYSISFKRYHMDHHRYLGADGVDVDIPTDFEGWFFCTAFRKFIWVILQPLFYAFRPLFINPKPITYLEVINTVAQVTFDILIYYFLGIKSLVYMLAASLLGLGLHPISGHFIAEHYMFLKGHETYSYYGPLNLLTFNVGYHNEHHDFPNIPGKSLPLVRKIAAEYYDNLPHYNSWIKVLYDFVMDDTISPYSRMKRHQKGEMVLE

| IC50 [2] | inhibition at 0.5 µM [3] [%] | SMILES | further results |
| --- | --- | --- | --- |
| 60 nM |  | O=C(/C=C/c1ccccc1)Nc1ccc(O)cn1 [Example 8, N-(5-hydroxy-pyridin-2-yl)-cinnamide] | inhibition at 1 µM [1]: 85.9% |
| 16 nM |  | CC(C)c1ccc(C(=O)Nc2ccc(O)cn2)cc1 [Example 27, N-(5-hydroxy-pyridin-2-yl)-4-isopropyl-benzamide] |  |
| 21 nM | 92.6 | CC(C)O[C@H]1CC[C@H](C(=O)Nc2ccc(O)cn2)CC1 [Example 40, (1r,4r)-N-(5-hydroxypyridin-2-yl)-4-iso-propoxycyclo-hexane-1-carboxamide] |  |
| 66 nM | 94.1 | O=C(CN1CCN(c2ccc(Cl)cc2)CC1)Nc1ccc(O)cn1 [Example 52, 2-[4-(4-chlorophenyl)piperazin-1-yl]-N-(5-hydroxypyridin-2-yl)acetamide] |  |
|  | 85.6 | O=C(Nc1ccc(O)cn1)c1ccc(-c2cccnc2)cc1 [Example 34, N-(5-hydroxy-pyridin-2-yl)-4-(pyridin-3-yl)benzamide] |  |
| 6 nM |  | CCCCCCCC(=O)Nc1ccc(O)cn1 [Example 29, N-(5-hydroxy-pyridin-2-yl)-octanamide] | inhibition at 1 µM [1]: 95.7% |
|  | 44.8 | COCCCCCC(=O)Nc1ccc(O)cn1 [Example 36, N-(5-hydroxy-pyridin-2-yl)-6-methoxy-hexanamide] |  |
| 10 nM and 26 nM |  | O=C(Nc1ccc(O)cn1)c1ccc(-c2ccccc2)cc1 [Example 9, N-(5-hydroxy-pyridin-2-yl)-(1,1′-biphenyl)-4-carboxamide] | inhibition at 1 µM [1]: 93.3% |
| 140 nM | 92.3 | O=C(CN1CCN(c2ccc(F)cc2)CC1)Nc1ccc(O)cn1 [Example 50, 2-[4-(4-fluorophenyl)piperazin-1-yl]-N-(5-hydroxypyridin-2-yl)acetamide] |  |
| 840 nM |  | O=C(Nc1ccc(O)cc1)c1ccc2ccccc2c1 [Example 2, N-(4-hydroxy-phenyl)-2-naphthamide] | inhibition at 10 µM [4]: 78% |
| 4460 nM |  | C/C(=C\C(=O)Nc1ccc(O)cc1)c1ccccc1 [Example 3, (E)-N-(4-hydroxy-phenyl)-3-phenylbut-2-enamide] | inhibition at 10 µM [4]: 49% |
| 250 nM | 91.3 | O=C(Nc1ccc(O)cn1)C1CCCN(c2ccc(F)cc2)C1 (stereo not shown) [Example 48, 1-(4-fluorophenyl)-N-(5-hydroxypyridin-2-yl)piperidine-3-carboxamide] |  |
|  |  | O=C(Nc1ccc(O)cc1)c1ccc(-c2ccc(O)cc2)cc1 [Example 16, N-(4-hydroxy-phenyl)-4′-hydroxy-biphenyl-4-carboxamide] | inhibition at 10 µM [4]: 54% |
| 23 nM | 94 | CC(c1ccc(C(=O)Nc2ccc(O)cn2)cc1)C(F)(F)F (stereo not shown) [Example 45, N-(5-hydroxy-pyridin-2-yl)-4-(1,1,1-trifluoro-propan-2-yl)-benzamide] |  |
| 13 nM | 96.8 | O=C(CC1CCN(c2ccc(F)cc2)CC1)Nc1ccc(O)cn1 [Example 49, 2-[1-(4-fluorophenyl)piperidin-4-yl]-N-(5-hydroxypyridin-2-yl)acetamide] |  |
| 11 nM | 96.6 | O=C(Nc1ccc(O)cn1)C1CCN(c2ccc(F)cc2)CC1 [Example 54, 1-(4-fluorophenyl)-N-(5-hydroxypyridin-2-yl)piperidine-4-carboxamide] |  |
| > 10000 nM |  | CC(C)=CC(=O)Nc1ccc(O)cc1 [Example 11, N-(4-hydroxy-phenyl)-3-methyl-2-butenamide] | inhibition at 10 µM [4]: 20% |
| 3 nM |  | O=C(Nc1ccc(O)cn1)c1ccc(-c2ccc(Cl)cc2)cc1 [Example 24, N-(5-hydroxy-pyridin-2-yl)-4′-chloro-biphenyl-4-carboxamide] | inhibition at 1 µM [1]: 96.1% |
| 14 nM |  | COc1ccc(-c2ccc(C(=O)Nc3ccc(O)cn3)cc2)cc1 [Example 22, N-(5-hydroxy-pyridin-2-yl)-4′-methoxy-biphenyl-4-carboxamide] | inhibition at 1 µM [1]: 95.4% |

| IC50 [2] | inhibition at 0.5 µM [3] [%] | SMILES | further results |
| --- | --- | --- | --- |
| 88 nM | 81.3 | CC(C)O[C@H]1CC[C@@H](C(=O)Nc2ccc(O)cn2)CC1 [Example 41, (1s,4s)-N-(5-hydroxypyridin-2-yl)-4-iso-propoxycyclo-hexane-1-carboxamide] |  |
| 230 nM |  | O=C(Nc1ccc(O)cn1)[C@@H]1C[C@H]1c1ccccc1 [Example 10, (trans)-N-(5-hydroxy-pyridin-2-yl)-2-phenyl-cyclopropane-carboxamide] | inhibition at 1 µM [1]: 67.2% |
| > 10000 nM |  | O=C(Nc1ccc(O)cc1)c1ccc2[nH]ncc2c1 [Example 14, N-(4-hydroxy-phenyl)-1H-indazole-5-carboxamide] | inhibition at 10 µM [4]: 14.8% |
|  | 65.9 | O=C(Nc1ccc(O)cn1)c1ccc(-c2c(Cl)cccc2Cl)cc1 [Example 39, 2′,6′-dichloro-N-(5-hydroxy-pyridin-2-yI)-[1,1′-biphenyl]-4-carboxamide] |  |
| 4 nM | 90 | CC(C)(C)c1ccc(C(=O)Nc2ccc(O)cn2)cc1 [Example 35, 4-(tert-butyl)-N-(5-hydroxy-pyridin-2-yl)-benzamide] | inhibition at 1 µM [1]: 95.7% |
| 440 nM |  | O=C(/C=C/c1ccccc1)Nc1ccc(O)cc1 [Example 4, N-(4-hydroxy-phenyl)-cinnamide] | inhibition at 10 µM [4]: 85% |
| 50 nM |  | O=C(Nc1ccc(O)cc1)c1ccc(-c2ccccc2)cc1 [Example 5, N-(4-hydroxy-phcnyl)-[1,1′-biphenyl]-4-carboxamide] | inhibition at 10 µM [4]: 88% |
| 19 nM | 95.4 | O=C(Nc1ccc(O)cn1)c1ccc(-c2ccccc2Cl)cc1 [Example 38, 2′-chloro-N-(5-hydroxy-pyridin-2-yl)-[1,1′-biphenyl]-4-carboxamide] |  |
|  |  | O=C(Nc1ccc(O)cn1)c1cccc2ccccc12 [Example 19, N-(5-hydroxy-pyridin-2-yl)-1-napthamide] | inhibition at 1 µM [1]: 31% |
| 50 nM |  | O=C(CN1CCN(c2ccc(C(F)(F)F)cc2)CC1)Nc1ccc(O)cn1 [Example 47, N-(5-hydroxypyridin-2-yl)-2-[4-[4-(trifluoromethyl)phenyl]piperazin-1-yl]acetamide] |  |
| 180 nM |  | O=C(Nc1ccc(O)cn1)c1ccc2ccccc2c1 [Example 7, N-(5-hydroxy-pyridin-2-yl)-2-naphth-amide] | inhibition at 1 µM [1]: 79.8% |
|  | 71.1 | O=C(Nc1ccc(O)cn1)c1ccc(-c2ccccn2)cc1 [Example 33, N-(5-hydroxy-pyridin-2-yl)-4-(pyridin-2-yl)benzamide] |  |
| 5 nM |  | O=C(Nc1ccc(O)cn1)[C@H]1CC[C@H](c2ccccc2)CC1 [Example 28, (1r,4r)-N-(5-hydroxy-pyridin-2-yl)-4-phenyl-cyclohexane-1-carboxamide] | inhibition at 1 µM [1]: 96.2% |
| 5 nM |  | N#Cc1ccc(-c2ccc(C(=O)Nc3ccc(O)cn3)cc2)cc1 [Example 23, N-(5-hydroxy-pyridin-2-yl)-4′-cyano-biphenyl-4-carboxamide] | inhibition at 1 µM [1]: 96.3% |
| 2 nM |  | O=C(Nc1ccc(O)cn1)C1CCN(c2ccc(C(F)(F)F)cc2)CC1 [Example 53, N-(5-hydroxypyridin-2-yl)-1-[4-(trifluoromethyl)phenyl]piperidine-4-carboxamide] |  |
|  | 96.2 | O=C(CC1CCN(c2ccc(C(F)(F)F)cc2)CC1)Nc1ccc(O)cn1 [Example 46, N-(5-hydroxypyridin-2-yl)-2-[1-[4-(trifluoromethyl)phenyl]piperidin-4-yl]acetamide] |  |
| 8200 nM |  | O=C(Nc1ccc(O)cc1)c1cccc2ccccc12 [Example 13, N-(4-hydroxy-phenyl)-1-napthamide] | inhibition at 10 µM [4]: 38% |
| 130 nM | 85.5 | CCc1ccc(C(=O)Nc2ccc(O)cn2)cc1 [Example 42, 4-ethyl-N-(5-hydroxy-pyridin-2-yl)-benzamide] |  |

| SMILES | IC50 [2] | inhibition at 0.5 µM [3] [%] | further results |
| --- | --- | --- | --- |
| CC(C)CCCCCC(=O)Nc1ccc(O)cn1 [Example 31, N-(5-hydroxy-pyridin-2-yl)-7-methyloctan-amide] | 1 nM |  | inhibition at 0.5 µM (Jurkat): 91% |
| O=C(Nc1ccc(O)cn1)c1ccc(C2CCCCC2)cc1 [Example 20, N-(5-hydroxy-pyridin-2-yl)-4-cyclohexyl-benzamide] | 4 nM |  | inhibition at 1 µM (Jurkat): 95.9% |
| O=C(Nc1ccc(O)cc1)c1ccc(C2CCCCC2)cc1 [Example 15, N-(4-hydroxy-phenyl)-4-cyclohexyl-benzamide] | 90 nM |  | inhibition at 10 µM (Jurkat): 87% |
| O=C(Nc1ccc(O)cn1)[C@H]1CC[C@H](c2ccc(Cl)cc2)CC1 [Example 32, (1r,4r)-4-(4-chlorophenyl)-N-(5-hydroxy-pyridin-2-yl)-cyclohexane-1-carboxamide] | 1 nM |  | inhibition at 0.5 µM (Jurkat): 96.8% |
